The target in series [1] is T1, MCT13 (SLC16A13), untagged, co-expressed with CD147 (Homo sapiens, UniProt Q7RTY0).
T1 construct: untagged full-length MCT13, transiently co-transfected with CD147 in HEK293T cells; with Basigin
T1 sequence (Q7RTY0 1-426): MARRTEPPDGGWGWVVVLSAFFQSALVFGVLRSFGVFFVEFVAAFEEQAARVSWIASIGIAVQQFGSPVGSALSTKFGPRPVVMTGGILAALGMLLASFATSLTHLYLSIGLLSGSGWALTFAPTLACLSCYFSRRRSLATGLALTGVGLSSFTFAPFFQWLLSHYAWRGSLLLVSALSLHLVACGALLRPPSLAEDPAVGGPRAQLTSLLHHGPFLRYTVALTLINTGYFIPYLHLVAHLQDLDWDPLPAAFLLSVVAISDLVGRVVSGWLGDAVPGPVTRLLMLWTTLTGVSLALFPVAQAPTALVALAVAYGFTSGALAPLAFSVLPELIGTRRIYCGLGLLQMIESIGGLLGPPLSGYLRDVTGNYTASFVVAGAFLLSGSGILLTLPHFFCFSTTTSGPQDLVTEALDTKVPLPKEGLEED
T1 sequence (P35613 22-385 partner): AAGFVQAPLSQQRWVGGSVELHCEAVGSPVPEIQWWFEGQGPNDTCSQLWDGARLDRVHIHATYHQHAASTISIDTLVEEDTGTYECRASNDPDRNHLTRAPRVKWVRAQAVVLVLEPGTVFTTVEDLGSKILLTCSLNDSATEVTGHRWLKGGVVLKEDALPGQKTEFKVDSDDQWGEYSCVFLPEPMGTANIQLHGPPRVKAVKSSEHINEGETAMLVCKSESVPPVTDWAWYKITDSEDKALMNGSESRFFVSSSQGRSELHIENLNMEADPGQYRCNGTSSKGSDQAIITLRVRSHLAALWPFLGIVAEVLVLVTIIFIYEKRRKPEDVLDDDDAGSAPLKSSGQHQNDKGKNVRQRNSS
As to the kind of experiment: inhibition of cephradine uptake in transfected HEK293T cells, LC-MS/MS. The settings on record: HEK-293T; read-out: % inhibition at 10 mM. The series is classed as cell-based.

Series [2] concerns the target T1, MCT13 (SLC16A13), untagged, co-expressed with CD147. Described as above. The series is classed as cell-based. The settings on record: 1 mM cephradine, KCl buffer, 5 min, mock subtracted.
The target is the same in series [3]. Described as above. It is filed as cell-based. The settings on record: 1 mM cephradine, KCl buffer with 1% DMSO, 5 min, mock subtracted.
Substrate in series [4]: CC1=C(C(=O)O)N2C(=O)[C@@H](NC(=O)[C@H](N)C3=CCC=CC3)[C@H]2SC1
As to the kind of experiment: uptake in transfected HEK293T cells, LC-MS/MS. It is filed as cell-based, Homo sapiens.

Usually inhibition stands for how much of the control response was suppressed. For `Cc1nnc(SCC2=C(C(=O)O)N3C(=O)[C@@H](NC(=O)Cn4cnnn4)[C@H]3SC2)s1` [Cephazolin], the inhibition at 10000 µM in series [1] was determined as 43%.

Consider `CCCN(CCC)S(=O)(=O)c1ccc(C(=O)O)cc1` [Probenecid], for which, in series [2], the “% of control at 10 mM” value is “Probenecid and rifampicin, which are typical inhibitors of organic anion transporters”.

As to `N[C@@H](CCC(=O)N[C@@H](CS)C(=O)NCC(=O)O)C(=O)O` [glutathione], in series [1], the inhibition at 10000 µM was 30%.

With `CO[C@H]1/C=C/O[C@@]2(C)Oc3c(C)c(O)c4c(O)c(c(/C=N/N5CCN(C)CC5)c(O)c4c3C2=O)NC(=O)/C(C)=C\C=C\[C@H](C)[C@H](O)[C@@H](C)[C@@H](O)[C@@H](C)[C@H](OC(C)=O)[C@@H]1C` [rifampicin], the “% of control at 50 uM” value in series [3] is “Probenecid and rifampicin, which are typical inhibitors of organic anion transporters”.

B1: MCT13 (SLC16A13), untagged, co-expressed with CD147 (Homo sapiens) (protein)
chain: MARRTEPPDGGWGWVVVLSAFFQSALVFGVLRSFGVFFVEFVAAFEEQAARVSWIASIGIAVQQFGSPVGSALSTKFGPRPVVMTGGILAALGMLLASFATSLTHLYLSIGLLSGSGWALTFAPTLACLSCYFSRRRSLATGLALTGVGLSSFTFAPFFQWLLSHYAWRGSLLLVSALSLHLVACGALLRPPSLAEDPAVGGPRAQLTSLLHHGPFLRYTVALTLINTGYFIPYLHLVAHLQDLDWDPLPAAFLLSVVAISDLVGRVVSGWLGDAVPGPVTRLLMLWTTLTGVSLALFPVAQAPTALVALAVAYGFTSGALAPLAFSVLPELIGTRRIYCGLGLLQMIESIGGLLGPPLSGYLRDVTGNYTASFVVAGAFLLSGSGILLTLPHFFCFSTTTSGPQDLVTEALDTKVPLPKEGLEED
notes: untagged full-length MCT13, transiently co-transfected with CD147 in HEK293T cells; with Basigin
Broadly, the Km is the concentration of substrate that gives half-maximal velocity. In the case of B1, the Km in series [4] (KCl buffer, 0.1-30 mM cephradine, co-expressed CD147) was determined as 2.83 ± 0.63 mM.

B2: EGFP-tagged MCT13 (with CD147) (Homo sapiens) (protein)
chain: MARRTEPPDGGWGWVVVLSAFFQSALVFGVLRSFGVFFVEFVAAFEEQAARVSWIASIGIAVQQFGSPVGSALSTKFGPRPVVMTGGILAALGMLLASFATSLTHLYLSIGLLSGSGWALTFAPTLACLSCYFSRRRSLATGLALTGVGLSSFTFAPFFQWLLSHYAWRGSLLLVSALSLHLVACGALLRPPSLAEDPAVGGPRAQLTSLLHHGPFLRYTVALTLINTGYFIPYLHLVAHLQDLDWDPLPAAFLLSVVAISDLVGRVVSGWLGDAVPGPVTRLLMLWTTLTGVSLALFPVAQAPTALVALAVAYGFTSGALAPLAFSVLPELIGTRRIYCGLGLLQMIESIGGLLGPPLSGYLRDVTGNYTASFVVAGAFLLSGSGILLTLPHFFCFSTTTSGPQDLVTEALDTKVPLPKEGLEED
notes: EGFP-tagged (pEGFP-C1) full-length MCT13, co-transfected with CD147 in HEK293T cells; with Basigin
Consider B2, for which the Km in series [4] (EGFP-tagged MCT13) came out at 3.95 ± 0.53 mM.

The record behind these values is article PMC10458055, “Monocarboxylate Transporter 13 (MCT13/SLC16A13) Functions as a Novel Plasma Membrane Oligopeptide Transporter” (Nutrients, 2023).
